Source: patent publication US4342780A, “Method of depleting endogenous monoamines” (Merrell-Toraude et Cie, priority 1981, dated 1982)

Tests used:
AADC = assay: Ex vivo AADC activity in organs of mice after repeated i.p. doses (Table II); set-up: species or system mice (Swiss Albino); conditions: three days, 12 h after 6th dose, vs control
Protocol: (§1) The test animals (e.g. mice or rats) are given the test compound in a suitable vehicle, either orally or by injection, each day over the period of time desired. The animals are kept on a constant time cycle, and body weights are measured daily. The animals are sacrificed by decapitation 12 to 24 hours after receiving the last dose of the test compound. Control animals receive the vehicle alone.
(§2) Immediately after death, the organs (brain, heart, and kidney) are removed and homogenized either in 50 ml phosphate buffer pH 6.8 for AADC determination or in ice-cold 0.4 M HClO4 containing 0.05% (w/v) EDTA and 0.1% (w/v) sodium bisulfite for catecholamine determination. AADC activity is determined by the ^14 CO2 trapping method of J. Christenson, supra (see Example 14) using DL-[1-^14 C]-dopa as the substrate. Catecholamines are determined by centrifuging the homogenate, adding the supernatant to alumina buffered to pH 8.0-8.4 to adsorb the catecholamines, re-extracting the catecholamines from the alumina with 0.2 M HClO4 and determining the catecholamines in the extracts using known procedures, such as by reversed-phase ion-pair HPLC with electrochemical detection.
(§3) Table II, shown below, sets forth the results obtained by testing particular compounds of Formula I in the above-described procedure in mice (Swiss Albino) after i.p. administration of the compound twice daily for three days: […]

[1] = system: catecholamine content (norepinephrine, dopamine); assay: Catecholamine content in organs of mice after repeated i.p. doses (Table II); assay type: in vivo, mice (Swiss Albino); conditions: three days, 12 h after 6th dose, vs control
Protocol: as §1, §2, §3

[2] = system: catecholamine content (norepinephrine, dopamine); assay: Catecholamine content in organs of rats after oral administration once daily for 15 days (Table III); assay type: in vivo, rats (Sprague-Dawley); conditions: 24 h after 15th dose, vs control; for % CHANGE Brain Dopamine: * not significant
Protocol: as §1, §2
Table III gives the results obtained by testing particular compounds of Formula I in rats (Sprague-Dawley) after oral administration of the test compound once daily for 15 days. AADC activity was not determined.

[3] = system: dopamine, noradrenalin and 5-hydroxytryptamine content; assay: Effect on catecholamines and 5-HT in brain regions of the rat 24 hours post-dose (Table IV); assay type: in vivo, Male Sprague-Dawley rats; conditions: 100 mg/kg i.p., ± S.E.M.
Protocol: The following example illustrates the effect of 2-amino-2-fluoromethyl-3-(3,4-dihydroxyphenyl)propionic acid on catecholamines and 5-HT in the brain.
Male Sprague-Dawley rats (200-300 g) from Charles River, France are housed in groups having free access to food and water. The animals are maintained on a 12 hour light-dark cycle at an ambient temperature of 23° C. The compound 2-amino-2-fluoromethyl-3-(3,4-dihydroxyphenyl)propionic acid is dissolved in 0.9% saline solution and administered as a single dose of 100 mg/kg, i.p. The animals are sacrificed 24 hours later and the brain is dissected on a chilled glass plate into six regions: the striatum, hypothalmus, olfactory tubercles, frontal cortex, cerebellum and brain stem. The tissues are weighed and homogenized in 600 microliters of ice-cold 0.4 Normal HClO4 reagent. The homogenate is centrifuged and dopamine, noradrenalin and 5-hydroxytryptamine are determined by reversed-phase ion-pair high pressure liquid chromatography using electrochemical detection.

[4] = system: dopamine, noradrenaline and serotonin content; assay: Effect of repeated administration on catecholamine and serotonin content of the mouse brain (Table V); assay type: in vivo, Male albino mice; conditions: 5 × 100 mg/kg i.p. every 12 hours
Protocol: The following example illustrates the effect of repeated administration of 2-amino-2-fluoromethyl-3(3,4-dihydroxyphenyl)propionic acid in the brain.
Male albino mice (25-30 g) from Charles River, France and dosed i.p. with 100 mg/kg of 2-amino-2-fluoromethyl-3-(3,4-dihydroxyphenyl)propionic acid every 12 hours for 5 doses. Saline solution is used as a control. The mice are sacrificed and the catecholamines, dopamine and noradrenaline, and serotonin (5-hydroxytryptamine) are determined by reverse-phase ion-pair high pressure liquid chromatography using electrochemical detection.

[5] = 5 mg/kg oral once daily 15 days
[6] = 10 mg/kg oral once daily 15 days
[7] = 15 mg/kg oral once daily 15 days
[8] = 20 mg/kg oral once daily 15 days

## NC(CF)(Cc1ccc(O)c(O)c1)C(=O)O (stereo not shown) [3,4-diOH-phenyl, 2-Amino-2-fluoromethyl-3-(3,4-dihydroxyphenyl)propionic acid]
AADC; 10 mg/kg i.p. twice daily
  % CHANGE AADC Brain: -86%
  % CHANGE AADC Kidney: -95%
AADC; 100 mg/kg i.p. twice daily
  % CHANGE AADC Brain: -99%
  % CHANGE AADC Kidney: -99%
[1]; 10 mg/kg i.p. twice daily, * not significant
  % CHANGE NOREPINEPHRINE Brain: -55%
[1]; 10 mg/kg i.p. twice daily, * not significant (-25*, -7*)
  % CHANGE NOREPINEPHRINE Heart: -39%
[1]; 10 mg/kg i.p. twice daily, * not significant (-25*, -9*)
  % CHANGE DOPAMINE Brain: 0%
[1]; 100 mg/kg i.p. twice daily
  % CHANGE NOREPINEPHRINE Brain: -80%
  % CHANGE NOREPINEPHRINE Heart: -80%
[1]; 100 mg/kg i.p. twice daily, * not significant (-35*)
  % CHANGE DOPAMINE Brain: -80%
[2]; [5]
  % CHANGE Brain Norepinephrine: -25%
  % CHANGE Heart Norepinephrine: -56%
  % CHANGE Brain Dopamine: -2%
[2]; [6]
  % CHANGE Brain Norepinephrine: -47%
  % CHANGE Heart Norepinephrine: -67%
  % CHANGE Brain Dopamine: -8%
[2]; [7]
  % CHANGE Brain Norepinephrine: -51%
  % CHANGE Heart Norepinephrine: -68%
  % CHANGE Brain Dopamine: -6%
[2]; [8]
  % CHANGE Brain Norepinephrine: -49%
  % CHANGE Heart Norepinephrine: -72%
  % CHANGE Brain Dopamine: -10%
[3]; control 30 ± 3, p < 0.01
  5-Hydroxytriptamine, Cerebellum: 11 ± 3 ng/g
[3]; control 37 ± 9
  Dopamine, Brain Stem: 13 ± 4 ng/g
[3]; control 47 ± 13
  Noradrenaline, Striatum: 46 ± 24 ng/g
[3]; control 137 ± 1, p < 0.001
  Noradrenaline, Cerebellum: 17 ± 3 ng/g
[3]; control 360 ± 32, p < 0.01
  Noradrenaline, Olfactory Tubercles: 126 ± 29 ng/g
[3]; control 365 ± 23, p < 0.001
  5-Hydroxytriptamine, Frontal Cortex: 19 ± 7 ng/g
[3]; control 399 ± 23
  Dopamine, Hypothalamus: 280 ± 69 ng/g
[3]; control 439 ± 47, p < 0.01
  Noradrenaline, Brain Stem: 143 ± 9 ng/g
[3]; control 591 ± 47, p < 0.001
  5-Hydroxytriptamine, Striatum: 50 ± 16 ng/g
[3]; control 620 ± 35, p < 0.01
  5-Hydroxytriptamine, Brain Stem: 136 ± 50 ng/g
[3]; control 699 ± 72, p < 0.01
  5-Hydroxytriptamine, Olfactory Tubercles: 87 ± 31 ng/g
[3]; control 1162 ± 306, p < 0.05
  5-Hydroxytriptamine, Hypothalamus: 199 ± 44 ng/g
[3]; control 1419 ± 107, p < 0.01
  Noradrenaline, Hypothalamus: 631 ± 37 ng/g
[3]; control 1954 ± 62, p < 0.001
  Dopamine, Olfactory Tubercles: 403 ± 44 ng/g
[3]; control 7342 ± 357, p < 0.001
  Dopamine, Striatum: 1466 ± 156 ng/g
[4]; vs saline
  % Reduction Dopamine (brain): -97%
  % Reduction Noradrenaline (brain): -94%
  % Reduction Serotonin (brain): -83%
[4]; ± S.E.M., saline 310 ± 15
  Noradrenaline content of the brain: 19.6 ± 3 ng/g
[4]; ± S.E.M., saline 722 ± 47
  Dopamine content of the brain: 18.6 ± 2 ng/g
[4]; ± S.E.M., saline 1685 ± 29
  Serotonin content of the brain: 282 ± 25 ng/g
